Test results from PMC10419252, “Synthesis, Properties, and Biomedical Application of Dicationic Gemini Surfactants with Dodecane Spacer and Carbamate Fragments” (International Journal of Molecular Sciences, 2023).
Where “and” joins values, the source holds several entries; their conditions need not be identical. Equal values may be shown once. Read-outs that look alike come from different tables or passages of the source.

Experiments:
[1] = system: Bacillus cereus ATCC 10702 NCTC 8035; experiment: Antimicrobial activity (Bc); format: cell-based; conditions: Bacillus cereus
Method: (§1) The antimicrobial activity of the compounds was tested on Gram-positive Staphylococcus aureus ATCC 6538P FDA 209P (Sa), Bacillus cereus ATCC 10702 NCTC 8035 (Bc), Enterococcus faecalis ATCC 29212 (Ef), and Gram-negative bacteria Escherichia coli ATCC 25922 (Ec), Pseudomonas aeruginosa ATCC 9027 (Pa), including methicillin-resistant strains of S. aureus MRSA-1 (resistant to fluoroquinolones and beta-lactams) and MRSA-2 (resistant to beta-lactams). Antifungal activity was studied against Candida albicans ATCC 10231 (Ca), Trichophyton mentagrophytes var. gypseum 1773 (Tm), and Aspergillus niger BKMF-1119 (An). A more detailed description of the experiment is published in [21].

[2] = system: Pseudomonas aeruginosa ATCC 9027; experiment: Antimicrobial activity (Pa); format: cell-based; conditions: Pseudomonas aeruginosa
Method: as §1

Pyrene fluorimetry = format: physicochemical; conditions: 298 K
Method: To determine cmc by fluorimetry, a hydrophobic probe pyrene was added to a series of surfactant solutions at a concentration of 1 μM. The solutions were kept for 30–40 min for complete solubilization of the probe. The fluorescent emission spectra of pyrene were recorded on an F-7100 fluorimeter (Hitachi, Tokyo, Japan) using 10 × 4 mm quartz cuvette (Hellma Analytics, Müllheim, Germany) with the following settings: λex = 335 nm, λem = 350–600 nm, and scanning speed = 1200 nm/min. The cmc was calculated from the dependence of the pyrene polarity index (the ratio of the intensities of the first (373 nm) and third (383 nm) peaks) on the surfactant concentration.

[3] = system: Aspergillus niger BKMF-1119; experiment: Antifungal activity (An); format: cell-based; conditions: Aspergillus niger
Method: as §1

[4] = system: Enterococcus faecalis ATCC 29212; experiment: Antimicrobial activity (Ef); format: cell-based; conditions: Enterococcus faecalis
Method: as §1

[5] = Orange OT solubilization, spectrophotometry (Schott method for Nagg); format: physicochemical
Method: (§2) The cmc and the solubilizing capacity (S) of surfactants were determined using the spectral azo dye OOT and the non-steroidal anti-inflammatory drug IND. To obtain a saturated solution, an excess of OOT and IND was added to 2 mL of a surfactant solution, stirred, and kept for 48 and 24 h, respectively. After that, the solutions were filtered using Millex® Syringe Filters (Millipore, Burlington, MA, USA) with a pore size of 450 nm, and the optical density was measured. The absorption spectra were recorded on a Specord 250 Plus spectrophotometer (Analytik Jena AG, Jena, Germany). Quartz cells with a thickness of 1 and 0.5 cm (Hellma Analytics, Müllheim, Germany) were used for measurements.
(§3) The solubilizing capacity (S) was determined using the following formula:S = b/ε, where b is D/l = f (Csurf) dependency slope (above cmc), ε is the extinction coefficient (17,400 L/mol∙cm for OOT, and the extinction coefficients of IND are determined in GS solutions and presented in Figure S10).
The OOT solubilization method (Schott method) was used to calculate the micelle Nagg. The Nagg values were calculated for each point on the curve of dependence of the OOT-reduced optical density on the surfactant concentration above the cmc according to the presented formula:[…], where ε is the extinction coefficient of OOT, Csurf is the surfactant concentration above cmc, and D is the optical density.

[6] = target: T1, human butyrylcholinesterase (hBChE) (Homo sapiens, UniProt P06276); experiment: In vitro cholinesterase inhibition, Ellman's method (hBChE); format: biochemical
T1 construct: purchased Sigma-Aldrich
T1 sequence (P06276 29-602): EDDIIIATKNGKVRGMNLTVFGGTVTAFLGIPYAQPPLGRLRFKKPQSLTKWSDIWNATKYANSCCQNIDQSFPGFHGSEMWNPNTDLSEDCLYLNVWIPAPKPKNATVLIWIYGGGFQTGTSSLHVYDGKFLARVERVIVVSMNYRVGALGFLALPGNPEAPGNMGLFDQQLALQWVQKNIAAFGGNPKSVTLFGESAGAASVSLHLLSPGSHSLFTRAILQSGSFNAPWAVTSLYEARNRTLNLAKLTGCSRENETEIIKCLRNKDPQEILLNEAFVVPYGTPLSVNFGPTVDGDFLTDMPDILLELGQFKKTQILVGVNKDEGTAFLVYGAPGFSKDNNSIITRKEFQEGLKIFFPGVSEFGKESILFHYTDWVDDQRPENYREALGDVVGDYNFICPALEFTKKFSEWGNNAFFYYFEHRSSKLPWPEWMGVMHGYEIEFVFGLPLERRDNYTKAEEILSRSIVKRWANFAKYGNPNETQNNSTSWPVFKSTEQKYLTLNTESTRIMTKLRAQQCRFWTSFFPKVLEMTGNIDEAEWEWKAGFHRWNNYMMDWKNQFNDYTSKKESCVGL
Method: (§4) Stock solutions (0.01 M) of the compounds were dissolved in H2O. The inhibitory activity of compounds against hAChE and hBChE was measured using Ellman’s method. Enzyme-catalyzed hydrolysis was carried out in 0.1 M PBS (pH = 8.0) containing 0.1 nM hAChE or hBChE, 0.1 mM 5,5′-dithiobis-(2-nitrobenzoic acid) and 1mM acetylthiocholine or butyrylthiocholine as substrates. The tested compounds were incubated with the enzyme for 5 min prior to the addition of the substrate. Analyses were performed at 298 K using a Shimadzu UV-1800 spectrophotometer (Shimadzu Co., Kyoto, Japan) at 412 nm. The substrate hydrolysis rate was measured within 2 min. A sample without inhibitor was used as a control (100% cholinesterase activity). A sample without substrate was used as a blank. The experiments were conducted in triplicate. The percentage of enzyme inhibition was determined using OriginPro 8.5 software (OriginLab Corporation, Northampton, MA, USA) by plotting a percentage of the inhibition versus compound concentration. IC50 values (inhibitor concentration required to inhibit enzyme activity by 50%) were determined by the Hill equation: E/Emax=[I]^n/IC50n+[I]^n, where E is enzyme activity in the presence of the compound, and [I] is the compound concentration.

[7] = system: methicillin-resistant S. aureus MRSA-2 (resistant to beta-lactams); experiment: Antimicrobial activity (MRSA-2); format: cell-based; conditions: Staphylococcus aureus, MRSA
Method: as §1

[8] = Electrode potential measurement with Br− selective electrode (potentiometry); format: physicochemical; conditions: 298 K
Method: The electrode potential measurements were performed for the Br^− counterion using the I-160MI laboratory ionomer (JSC Scientific and Production Association of the Measuring Equipment, Moscow, Russia). Br^− selective electrode (ELIS-131Br) and a reference electrode (ESr-10101) were used for measurement of the electromotive force (ΔE) of aqueous solution of surfactants (the concentration from 0.02 to 0.5 mM for 12-12-12(Et); from 0.002 to 0.05 mM for 14-12-14(Et)). To calibrate the ionomer, a series of KBr solutions were prepared in the concentration range of 0.1 mM to 100 mM.
β = 0.5(2Ct − CBr^−)/(Ct − cmc).

[9] = system: Candida albicans ATCC 10231; experiment: Antifungal activity (Ca); format: cell-based; conditions: Candida albicans
Method: as §1

[10] = system: Trichophyton mentagrophytes var. gypseum 1773; experiment: Antifungal activity (Tm); format: cell-based; conditions: Trichophyton mentagrophytes
Method: as §1

[11] = Tensiometry (Du Nouy ring), surface tension isotherms; format: physicochemical
Method: The surface tension isotherms of the micellar solutions were determined using the Du Nouy platinum ring detachment method on a K6 tensiometer (KRŰSS GmbH, Hamburg, Germany). For the experiment, surfactant solutions with a volume of 10 mL were prepared. The measurements were carried out strictly at 298 K in glass beakers, the diameter of which exceeded the diameter of the platinum ring. Surface tension measurements were carried out until stable values were obtained. After each measurement, the ring was degreased in ethanol and thoroughly dried. The cmc of the micellar solutions was determined from the breakpoint on the isotherm of surface tension versus surfactant concentration. The thermodynamic parameters of adsorption and micellization were calculated for all systems based on the obtained tensiometric curves.

[12] = system: methicillin-resistant S. aureus MRSA-1 (resistant to fluoroquinolones and beta-lactams); experiment: Antimicrobial activity (MRSA-1); format: cell-based; conditions: Staphylococcus aureus, MRSA
Method: as §1

[13] = target: T2, human acetylcholinesterase (hAChE) (Homo sapiens, UniProt P22303); experiment: biochemical
T2 construct: purchased Sigma-Aldrich
T2 sequence (P22303 32-614): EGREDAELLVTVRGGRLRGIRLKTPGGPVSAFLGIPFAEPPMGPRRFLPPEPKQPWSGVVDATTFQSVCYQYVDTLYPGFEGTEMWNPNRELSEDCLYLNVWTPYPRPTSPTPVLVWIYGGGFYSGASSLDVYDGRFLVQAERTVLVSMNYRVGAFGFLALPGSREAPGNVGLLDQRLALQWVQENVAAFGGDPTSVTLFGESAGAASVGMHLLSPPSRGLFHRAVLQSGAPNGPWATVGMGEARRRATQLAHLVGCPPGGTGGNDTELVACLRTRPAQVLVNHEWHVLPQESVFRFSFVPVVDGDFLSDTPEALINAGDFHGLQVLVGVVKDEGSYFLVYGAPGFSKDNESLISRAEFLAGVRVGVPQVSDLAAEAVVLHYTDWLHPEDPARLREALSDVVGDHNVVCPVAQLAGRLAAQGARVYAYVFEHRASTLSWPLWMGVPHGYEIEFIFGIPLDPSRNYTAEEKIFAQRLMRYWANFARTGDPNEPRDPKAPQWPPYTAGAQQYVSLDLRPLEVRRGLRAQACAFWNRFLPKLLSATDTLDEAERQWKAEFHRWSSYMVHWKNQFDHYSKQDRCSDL
Method: as §4

[14] = Indomethacin solubilization, spectrophotometry; format: physicochemical; conditions: 298 K
Method: as §2, §3

[15] = system: Staphylococcus aureus ATCC 6538P FDA 209P; experiment: Antimicrobial activity (Sa); format: cell-based; conditions: Staphylococcus aureus
Method: as §1

[16] = system: Escherichia coli ATCC 25922; experiment: Antimicrobial activity (Ec); format: cell-based; conditions: Escherichia coli
Method: as §1

Conductometry = format: physicochemical; conditions: 298 K
Method: The electrical conductivity of the micellar solutions was determined on an InoLab Cond 7110 conductometer (WTW, Weilheim, Germany). For the experiment, surfactant solutions with a volume of 10 mL were prepared. The electrical conductivity of all solutions was recorded at 298 K, and the electrode was washed with purified water after each measurement. The cmc was determined from the breakpoint of the dependence of electrical conductivity on the concentration of surfactants.

[17] = alkyltrimethylammonium bromides; cited from earlier work

CCCCCCCCCCCCCC[N+](C)(CCCCCCCCCCCC[N+](C)(CCCCCCCCCCCCCC)CCOC(=O)NCC)CCOC(=O)NCC (centres unmarked) [14-12-14(Et)]
MBC ([1]; read-out: MBC, Bc): 125 ± 9 µg/mL | MIC ([1]; read-out: MIC, Bc): 125 ± 10 µg/mL | MBC ([2]; ATCC9027, read-out: MBC, Pa): 125 ± 10 µg/mL | MIC ([2]; ATCC9027, read-out: MIC, Pa): 125 ± 10 µg/mL | cmc, Fluorimetry (Pyrene fluorimetry): 0.014 mM and 0.014 ± 0.0004 mM | MFC ([3]; BKMF1119, read-out: MFC, An): > 250 µg/mL | MIC ([3]; BKMF1119, read-out: MIC, An): > 250 µg/mL | MBC ([4]; ATCC29212, read-out: MBC, Ef): 3.9 ± 0.2 µg/mL | MIC ([4]; ATCC29212, read-out: MIC, Ef): 3.9 ± 0.3 µg/mL | S (solubilizing capacity), OOT [5]: 0.047 molOOT/molGS | S (solubilizing capacity), OOT ([5]; 298 K): 0.047 molprobe/molGS | cmc, Spectrophotometry ([5]; OOT, 298 K): 0.045 ± 0.003 mM | Nagg (aggregation number) ([5]; Schott approach, OOT solubilization, 298 K): 16 | IC50 [6]: 1.44 ± 0.52 µM | MBC ([7]; read-out: MBC, MRSA-2): 7.8 ± 0.7 µg/mL | MIC ([7]; read-out: MIC, MRSA-2): 7.8 ± 0.7 µg/mL | βpot (degree of counterion binding) [8]: 0.3 | MFC ([9]; ATCC10231, read-out: MFC, Ca): 250 ± 21 µg/mL | MIC ([9]; ATCC10231, read-out: MIC, Ca): 250 ± 19 µg/mL | MFC ([10]; read-out: MFC, Tm): 250 ± 18 µg/mL | MIC ([10]; read-out: MIC, Tm): 250 ± 19 µg/mL | Amin (surface area per surfactant molecule) ([11]; 298 K): 0.52 nm^2 | Гmax∙10^6 (maximum surface excess) ([11]; 298 K): 3.21 mol∙m^−2 | ∆Gmic (free energy of micellization) ([11]; 298 K): -8.84 kcal/mol | calculated adsorption layer thickness ([11]; air/water interface): 3.3 nm | cmctens ([11]; tensiometry, 298 K): 0.013 mM and 0.013 ± 0.0007 mM | MBC ([12]; read-out: MBC, MRSA-1): 7.8 ± 0.6 µg/mL | MIC ([12]; read-out: MIC, MRSA-1): 7.8 ± 0.6 µg/mL | IC50 [13]: 0.011 ± 0.0005 µM | SIhBChE/hAChE (selectivity index) ([13]; IC50 hBChE / IC50 hAChE): 131 | S (solubilizing capacity), IND [14]: 1.51 molprobe/molGS | MBC ([15]; read-out: MBC, Sa): 3.9 ± 0.3 µg/mL | MIC ([15]; read-out: MIC, Sa): 3.9 ± 0.2 µg/mL | MBC ([16]; ATCC25922, read-out: MBC, Ec): 31.3 ± 2.6 µg/mL | MIC ([16]; ATCC25922, read-out: MIC, Ec): 31.3 ± 2.5 µg/mL | cmccond (Conductometry): 0.05 mM and 0.05 ± 0.0013 mM | βcond (degree of counterion binding) (Conductometry): 0.44

CCCCCCCCCCCC[N+](C)(C)C.[Br-] [C12TAB]
Nagg [17]: 55
